Reference: patent US20060281695A1, “Control of parasites in animals by N-[(phenyloxy)phenyl]-1,1,1-trifluoromethanesulfonamide and N-[(phenylsulfanyl)phenyl]-1,1,1-trifluoromethanesulfonamide derivatives” (priority 2005, published 2006)

Tests used:
[1] = tested on: cat flea (Ctenocephalides felis); test: Ctenocephalides felis adulticide assay: single dose screen on treated glass surface (% mortality at 1.26 μg/cm^2, 24 hours); assay type: in vivo; conditions: for mortality at 1.26 µg/cm2, 1.26 µg/cm2: Ctenocephalides felis, 24 h, read-out: Ctenocephalides felis Mortality (%) 24 h
Experimental: The LC50 value is the concentration, expressed as μg/cm^2, that was required to kill 50% of the sample of cat fleas on contact with the tested compound. Certain tests are also reported as the percent of a sample of cat fleas that were killed at a concentration of 1.26 μg/cm^2 (“% mortality”), for the compounds tested in this way.
b) Ctenocephalides felis Adulticide Assay: C.felis single dose screen
Mortality of fleas is the primary endpoint in the assay. […] The concentration chosen (1.26 μg/cm^2) is higher than that known to kill 90% of cat fleas (LC90) using the reference compound, permethrin.
The test species employed was the cat flea (Ctenocephalides felis). The strain used was obtained from external suppliers as pupae and held in the laboratory under testing conditions until the adults had emerged. Fifteen (15) fleas were used in a minimum of four replicates against a single concentration level (approximately 60 fleas). The insects were selected to be in the adult life stage, aged between 3 and 7 days post emergence.
The compounds to be tested were supplied as solids and were prepared in acetone as described below prior to testing. Samples were stored in a refrigerator (5±1° C.) unless otherwise specified.
During the mortality testing, the temperature was maintained at 25±1° C. Humidity was maintained at 75±5%. The base (area=159 mm^2) of a 100 mL glass Erlenmeyer (conical) flask provided the treatment surface. Flasks were pre-treated with Coatasil™ glass treatment to maximise bio-availability of test compounds by preventing them from binding to glass the surface. The base of the 100 mL Erlenmeyer flask was treated with 0.5 mL of test sample in acetone and gently swirled. This volume was sufficient to cover the base of the flask. Flasks were left to dry for 24 hours before flea exposure.
Adult cat fleas were placed into a sorting chamber, which allowed fleas to jump into the Erlenmeyer flasks. Fifteen (15) adult cat fleas were collected in each flask. The top of the flasks were then covered in Parafilm™ and small holes were made to allow gas exchange. A 0.5 mL volume of acetone as a solvent control was applied to the base of an Erlenmeyer flask and the testing proceeded in the same manner described above. […] Pooled 24 hour mortality data were converted to percentages and are summarized by Table 4, below.
(§1) In Table 7, provided below, are listed the Haemonchus contortus LD99 values (measured in micrograms/mL), the Ctenocephalides felis rapid screening values (measured in % mortality), the Ctenocephalides felis LC50 values (measured in micrograms/cm^2) and the Rhipicephalus sanguineus rapid screening values (measured in % mortality) for selected compounds in accordance with the present invention.

Haemonchus contortus = Haemonchus contortus larvacidal (larval development) assay, LD99; assay type: in vitro
Experimental: The LD99 value is the dose, expressed as […], that was required to kill 99% of a sample of Haemonchus contortus.
a) Haemonchus Contortus Larvacidal Assay:
The effect of compounds on larval development was determined in the assay described by Gill et al. [International Journal of Parasitology 25:463-470 (1995)]. Briefly, in this assay, nematode eggs are applied to the surface of an agar matrix containing the test compound and then allowed to develop through to the L3, infective stage (6 days). The wells for each dilution of every compound (from highest to lowest concentration) are inspected to determine the well number corresponding to the lowest concentration at which development is inhibited in 99% of the nematode larvae present (LD99). Because well numbers correspond to a two-fold serial dilution of each compound, a titre (dilution factor) is generated as 2^n−1, where n is the well number. By dividing the highest concentration tested by the titre an LD99 value can be obtained, representing the concentration required to inhibit development in 99% of the nematode larvae present. The compounds supplied as solid and viscous liquids are dissolved in DMSO. Twelve serial one-half dilutions in DMSO solution are prepared from the stock solution, each of which is then diluted 1/5 with water. Aliquots (10 μl) of each dilution are transferred to the bioassay plates to give a final concentration range of 0.024 to 50 μg/ml.
as §1

[2] = tested on: Brown Dog Tick (Rhipicephalus sanguineus); test: Topical application on brown dog ticks, single dose screen (% mortality at 24 hours); assay type: in vivo; conditions: adult brown dog ticks, topical 1 μL in acetone on abdomen, single dose 10 μg per tick
Experimental: d) Topical Application On Brown Dog Ticks (Rhipicephalus sanguineus)
The aim of the test is to determine the presence of significant acaricidal activity in sample compounds or formulations when applied topically on brown dog ticks. A tick is defined as dead if it gives no apparent response when: (i) touched lightly and (ii) then observed for 1 minute. To assess the experimental compound for acaricidal activity, a single dose level is chosen based on known results from previous experiments with a commercially available active reference compound.
In the present example, both permethrin and fipronil were employed as reference compounds. The insect species tested was the Brown Dog Tick (Rhipicephalus sanguineus). Mixed sex adult ticks were used for tests. The strain used was cultured from a field strain and supplied as unfed adult ticks (mixed sex). Ticks were maintained in controlled conditions (temp. 18°±2° C., humidity 75±5% RH).
Test compounds (formulations or active ingredients) were stored in a refrigerator (5±1° C.) unless otherwise specified. The temperature was maintained at 25±1° C. and the humidity was ambient. The screening dose chosen was higher than that known kill 90% of insects (LD90) using the reference compound. In the case of topical application of active compounds on adult ticks, the reference compound was fipronil and the dose chosen was 10 μg of active per tick (=10 μg of fipronil/1 μl of acetone). Ticks were each treated on the abdomen with 1 μL of a single dose level of test sample in acetone; ten ticks were treated with solvent only (acetone) in each test. Tests were replicated 4 times (total of 40 ticks treated). Ticks were held in recovery containers maintained under appropriate rearing conditions for 24 hours. Mortality resulting from the treatments was recorded at 24 hours. Pooled 24 hour mortality data were converted to percentages.
as §1

[3] = adult cat fleas, single dose screen on treated glass surface, mortality at 24 h

O=S(=O)(c1ccc(Cl)cc1)c1cc(Cl)ccc1NS(=O)(=O)C(F)(F)F [Compound 24, N-[4-chloro-2-(4-(chlorophenyl)sulfonyl)phenyl]-1,1,1-trifluoromethanesulfonamide]
Ctenocephalides felis Mortality (%) 24 h ([1]; in vivo): 19%
Haemonchus contortus LD99 (Haemonchus contortus): 12.0 µg/mL

O=S(=O)(Nc1ccccc1Nc1ccccc1)C(F)(F)F [Compound 90]
Ctenocephalides felis Mortality (%) 24 h ([1]; in vivo): 88%
Rhipicephalus sanguineus Mortality (%) 24 h [2]: 13%

CC(C)=CCN(c1ccc(Cl)cc1Oc1ccccc1F)S(=O)(=O)C(F)(F)F [Compound 82]
Ctenocephalides felis Mortality (%) 24 h ([1]; in vivo): 90%
Rhipicephalus sanguineus Mortality (%) 24 h [2]: 0%

O=S(=O)(Nc1cccc(Cl)c1Oc1ccc(Cl)cc1Cl)C(F)(F)F [Compound 11]
Ctenocephalides felis Mortality (%) 24 h ([1]; in vivo): 20%
Haemonchus contortus LD99 (Haemonchus contortus): 2.5 µg/mL

CC(C)(C)c1ccc(Oc2cc(Cl)ccc2NS(=O)(=O)C(F)(F)F)cc1 [Compound 3]
Ctenocephalides felis Mortality (%) 24 h ([1]; in vivo): 58%
Haemonchus contortus LD99 (Haemonchus contortus): 7.0 µg/mL

CCCC(=O)OCN(c1ccc(Cl)cc1Oc1ccc(Cl)cc1Cl)S(=O)(=O)C(F)(F)F [Compound 73, N-[4-chloro-2-(2,4-dichlorophenoxy)phenyl]-N-(butyryl)oxymethyl-1,1,1-trifluoromethanesulfonamide]
mortality at 1.26 µg/cm2, 1.26 µg/cm2 [1]: 31%
Ctenocephalides felis Mortality (%), measured at 48 hours ([1]; in vivo): 100%
Rhipicephalus sanguineus Mortality (%) 24 h [2]: 8%

CC(C)(C)c1ccc(Oc2cc(Cl)c(Cl)cc2NS(=O)(=O)C(F)(F)F)cc1 [Compound 18]
Ctenocephalides felis Mortality (%) 24 h ([1]; in vivo): 19%
Haemonchus contortus LD99 (Haemonchus contortus): 2.8 µg/mL

CCOCN(c1ccc(Cl)cc1Oc1ccc(Cl)cc1Cl)S(=O)(=O)C(F)(F)F [Compound 71, N-[4-Chloro-2-(2,4-dichlorophenoxy)phenyl]-N-ethoxymethyl 1,1,1-trifluoromethanesulfonamide]
Ctenocephalides felis Mortality (%) 24 h ([1]; in vivo): 0%
Ctenocephalides felis Mortality (%), measured at 48 hours ([1]; in vivo): 100%
Rhipicephalus sanguineus Mortality (%) 24 h [2]: 5%

COCN(c1cccc(Oc2ccccc2)c1)S(=O)(=O)C(F)(F)F [m4]
Ctenocephalides felis Mortality (%) 24 h ([1]; in vivo): 90%
Rhipicephalus sanguineus Mortality (%) 24 h [2]: 8%

O=S(=O)(Nc1cc(C(F)(F)F)ccc1Oc1ccc(Cl)cc1)C(F)(F)F [Compound 29]
Ctenocephalides felis Mortality (%) 24 h ([1]; in vivo): 57%
Haemonchus contortus LD99 (Haemonchus contortus): 7.0 µg/mL

O=S(=O)(Nc1ccc(Cl)cc1Oc1ccc(Cl)c(Cl)c1)C(F)(F)F [Compound 7]
Ctenocephalides felis Mortality (%) 24 h [1, 3]: 22%
Haemonchus contortus LD99 (Haemonchus contortus): 1.63 µg/mL

CN(c1ccc(Cl)cc1Oc1ccc(Cl)cc1Cl)S(=O)(=O)C(F)(F)F [Compound 70, N-[4-Chloro-2-(2,4-dichlorophenoxy)phenyl]-N-methyl-1,1,1-trifluoromethanesulfonamide]
mortality at 1.26 µg/cm2, 1.26 µg/cm2 [1]: 11%
Ctenocephalides felis Mortality (%), measured at 48 hours ([1]; in vivo): 91%
Rhipicephalus sanguineus Mortality (%) 24 h [2]: 5%

CC(C)=CCN(c1ccc(Cl)cc1Oc1ccc(Cl)cc1Cl)S(=O)(=O)C(F)(F)F [Compound 75, N-(3-methyl-2-butenyl)-N-[4-chloro-2-(2,4-dichlorophenoxy)phenyl]-1,1,1-trifluoromethanesulfonamide]
mortality at 1.26 µg/cm2, 1.26 µg/cm2 [1]: 97%
Rhipicephalus sanguineus Mortality (%) 24 h [2]: 3%

O=S(=O)(Nc1cc(C(F)(F)F)c(Cl)cc1Oc1ccc(Cl)cc1Cl)C(F)(F)F [Compound 22]
Ctenocephalides felis Mortality (%) 24 h ([1]; in vivo): 4%
Haemonchus contortus LD99 (Haemonchus contortus): 0.63 µg/mL

COCN(c1ccc(Cl)cc1Oc1ccc(Cl)cc1Cl)S(=O)(=O)C(F)(F)F [Compound 84]
Ctenocephalides felis Mortality (%) 24 h ([1]; in vivo): 100%
Rhipicephalus sanguineus Mortality (%) 24 h [2]: 0%

O=S(=O)(Nc1ccc(Cl)c(Cl)c1Oc1ccccc1F)C(F)(F)F [Compound 17]
Ctenocephalides felis Mortality (%) 24 h ([1]; in vivo): 19%
Haemonchus contortus LD99 (Haemonchus contortus): 7.5 µg/mL

O=S(=O)(Nc1cccc(Oc2ccccc2)c1)C(F)(F)F [m1]
Ctenocephalides felis Mortality (%) 24 h ([1]; in vivo): 93%
Rhipicephalus sanguineus Mortality (%) 24 h [2]: 38%

CC(C)(C)C(=O)OCN(c1ccc(Cl)cc1Oc1ccc(Cl)cc1Cl)S(=O)(=O)C(F)(F)F [Compound 72, N-[4-Chloro-2-(2,4-dichlorophenoxy)phenyl]-N-(trimethylacetyl)oxymethyl-1,1,1-trifluoromethanesulfonamide]
mortality at 1.26 µg/cm2, 1.26 µg/cm2 [1]: 14%
Ctenocephalides felis Mortality (%), measured at 48 hours ([1]; in vivo): 100%
Rhipicephalus sanguineus Mortality (%) 24 h [2]: 0%

C#CCN(c1ccc(Cl)cc1Oc1ccc(Cl)cc1Cl)S(=O)(=O)C(F)(F)F [Compound 83, N-[4-chloro-2-(2,4-dichlorophenoxy)phenyl]-N-(2-propynyl)-1,1,1-trifluoromethanesulfonamide]
mortality at 1.26 µg/cm2, 1.26 µg/cm2 [1]: 100%
Rhipicephalus sanguineus Mortality (%) 24 h [2]: 8%

CCOCN(c1cccc(Oc2ccccc2)c1)S(=O)(=O)C(F)(F)F [m3]
Ctenocephalides felis Mortality (%) 24 h ([1]; in vivo): 57%
Rhipicephalus sanguineus Mortality (%) 24 h [2]: 38%

Cc1cccc(Oc2cc(Cl)ccc2NS(=O)(=O)C(F)(F)F)c1C [Compound 27]
Ctenocephalides felis Mortality (%) 24 h ([1]; in vivo): 59%
Haemonchus contortus LD99 (Haemonchus contortus): 14 µg/mL

O=S(=O)(Nc1ccc(Cl)cc1Oc1cccc2c1CCCC2)C(F)(F)F [Compound 28]
Ctenocephalides felis Mortality (%) 24 h [1, 3]: 10%
Haemonchus contortus LD99 (Haemonchus contortus): 12 µg/mL

O=S(=O)(Nc1ccc(Cl)cc1Oc1ccccc1Cl)C(F)(F)F [Compound 6]
Ctenocephalides felis Mortality (%) 24 h ([1]; in vivo): 74%
Haemonchus contortus LD99 (Haemonchus contortus): 15.0 µg/mL

C#CCN(c1ccc(Cl)cc1Oc1ccccc1F)S(=O)(=O)C(F)(F)F [Compound 85]
Ctenocephalides felis Mortality (%) 24 h ([1]; in vivo): 97%
Rhipicephalus sanguineus Mortality (%) 24 h [2]: 5%

O=S(=O)(Nc1cc(Cl)c(Cl)cc1Oc1ccc(F)cc1Cl)C(F)(F)F [Compound 19]
Ctenocephalides felis Mortality (%) 24 h ([1]; in vivo): 42%
Haemonchus contortus LD99 (Haemonchus contortus): 5.0 µg/mL

O=S(=O)(Nc1cc(Cl)c(Cl)cc1Oc1ccc(Cl)cc1Cl)C(F)(F)F [Compound 13]
Ctenocephalides felis Mortality (%) 24 h ([1]; in vivo): 48%
Haemonchus contortus LD99 (Haemonchus contortus): 1.8 µg/mL

O=S(=O)(Nc1cc(C(F)(F)F)ccc1Oc1ccc(Cl)cc1Cl)C(F)(F)F [Compound 10]
Ctenocephalides felis Mortality (%) 24 h ([1]; in vivo): 38%
Haemonchus contortus LD99 (Haemonchus contortus): 1.5 µg/mL
